# Key:
# KG-1 cells = assay: Measurement of fluorescence v time by flow cytometry, non-monocytic cell line; format: cell-based; conditions: KG-1 cells (insignificant quantities of hCE-1); FIG. 5; 3000 nM; median fluorescence intensity v time
# Method: (§1) The degree of fluorescence of monocytic and non-monocytic cell lines following treatment with Example 1 was assessed using flow cytometry. This assessment was performed using a BD Biosciences BD FACSCanto™ Flow Cytometry System.
# (§2) The cell lines are treated with a 3000 nM solution of Example 1. The resultant mixture is sampled at times 0, 1 hr, 2 hr, 4 hr and 6 hr. At each time point a sample of the cells is harvested by centrifugation, washed and allowed to rest for 30 minutes then washed again and re-suspended in a small volume for analysis by flow cytometry (FACSCanto™ A BD Biosciences) at an excitation of 488 nm blue laser line emission measured in an FITC detector using a 502 nm long pass dichroic and a 530±15 band pass filter. Data is expressed as median fluorescence intensity (MFI) for the cell population in the FITC channel, and plotted against time in a line graph. The unstained cells are set to an MFI of 100.
# THP-1 cells = assay: Measurement of fluorescence v time by flow cytometry, monocytic cell line; format: cell-based; conditions: THP-1 cells (significant quantities of hCE-1); FIG. 6; 3000 nM; median fluorescence intensity v time
# Method: as §1, §2
structure (smiles),measurement,setting,value
"O=C(OC1CCCC1)[C@@H](NCc1ccc(OCCCNc2ccc([N+](=O)[O-])c3nonc23)cc1)c1ccccc1 [Example 1, Cyclopentyl (2S)-[(4-{3-[(7-nitro-2,1,3-benzoxadiazol-4-yl)amino]propoxy}benzyl)amino](phenyl)ethanoate]",increase in fluorescence following treatment,KG-1 cells,low increase in fluorescence
same,increase in fluorescence following treatment,THP-1 cells,high increase in fluorescence
